We go through 13 compounds from ChEMBL document CHEMBL1136392, “Anilinopyrimidines as novel antituberculosis agents” (Bioorg Med Chem Lett, 2003).

SMILES strings stand for the structures. ≈ marks a conversion by molar mass, not a printed value. Calls of active or inactive are those of the source. No cut-off for these calls is given here.

Assay [1] relates to Mycobacterium tuberculosis. As to the kind of experiment: Minimum inhibitory concentration against Mycobacterium tuberculosis using microplate alamar blue assay. It is filed as functional. (In general: Resazurin is reduced to fluorescent resorufin, in cell work by metabolically active cells.)
The test system of assay [2] is Mycobacterium tuberculosis. The assay is described as follows: Minimum inhibitory concentration against Mycobacterium tuberculosis using microplate alamar blue assay; Inactive. The class given is functional, organism-based.
In the next assay the test system is Plasmodium falciparum. The assay is described as follows: In vitro activity as 50% reduction in parasite growth against Plasmodium falciparum by [3H]hypoxanthine uptake. It is filed as functional, organism-based.
The test system of assay [3] is Mycobacterium tuberculosis. As to the kind of experiment: Minimum inhibitory concentration against (MDR-TB) Mycobacterium tuberculosis using microplate alamar blue assay. The class given is functional.
In another assay the test system is Breast carcinoma cell. As to the kind of experiment: Cytotoxic concentration of compound against human breast cancer cells. The class given is functional, cell-based.
Assay [4] in a line: Cytotoxic concentration of compound against human small cell lung cancer (NCI-187). It is filed as functional.
Assay [5] is described as follows: Cytotoxic concentration of compound against human epidermal carcinoma (KB) cell line. It is filed as functional.

In the case of `CCN(CC)c1nc(C)cc(N(C)c2ccccc2)n1`, inhibition of growth in assay [1] (MIC) required 50 µg/mL (≈ 185 µM).
`Cc1cc(Nc2ccccc2)nc(Cl)n1`: the minimal inhibitory concentration (MIC) (as a rule, the lowest concentration that inhibits growth of the organism) in assay [1] was 50 µg/mL (≈ 228 µM).
`CCCN(CC1CC1)c1nc(C)cc(N(C)c2c(C)cc(C)cc2C)n1` yielded an MIC in assay [1] of 3.12 µg/mL (≈ 8.85 µM).
The same measure, in the same setting: then `CCCN(CC1CC1)c1nc(C)cc(Nc2ccccc2)n1`, with 12.5 µg/mL (≈ 42.2 µM); and `CCCN(CC1CC1)c1nc(C)cc(N(C)c2ccccc2)n1`, with 12.5 µg/mL (≈ 40.3 µM).
Same read-out and setting: then `CCN(CC)c1nc(C)cc(Nc2ccccc2)n1`, with 25 µg/mL (≈ 97.5 µM).
For the compound `Cc1cc(C)c(Nc2cc(C)nc(Cl)n2)c(C)c1`, the MIC result in assay [2] is “inactive”.
As for `C[C@@H]1CC[C@H]2[C@@H](C)C(=O)O[C@@H]3O[C@@]4(C)CC[C@@H]1[C@]32OO4` [ARTEMISININ], half-maximal inhibition with Plasmodium falciparum (IC50) was put at 0.001 µg/mL (≈ 0.00354 µM).
In turn, `CC(C)/N=c1\cc2n(-c3ccc(Cl)cc3)c3ccccc3nc-2cc1Nc1ccc(Cl)cc1` [CLOFAZIMINE] came in with an MIC in assay [3] of 2 µg/mL (≈ 4.22 µM).
With `Cc1c2ccncc2c(C)c2c1[nH]c1ccccc12` [ELLIPTECINE], the half-inhibitory concentration (IC50) (with Breast carcinoma cell; in assay [4]; in assay [5]) was 0.1 µg/mL (≈ 0.406 µM) in each case.
`NNC(=O)c1ccncc1` [ISONIAZID] gave an MIC in assay [1] of 0.04 µg/mL (≈ 0.292 µM).
The same measure, in the same setting: the same measure for `NC[C@H]1O[C@H](O[C@H]2[C@H](O)[C@@H](O[C@H]3O[C@H](CO)[C@@H](O)[C@H](N)[C@H]3O)[C@H](N)C[C@@H]2N)[C@H](O)[C@@H](O)[C@@H]1O.O=S(=O)(O)O` [KANAMYCIN SULFATE]: 5 µg/mL.
Same read-out and setting: then `NC(=O)c1cnccn1` [PYRAZINAMIDE], with 20 µg/mL (≈ 162 µM).
